Measurements: publication PMC7155171, “Probing the Open Global Health Chemical Diversity Library for Multistage-Active Starting Points for Next-Generation Antimalarials” (ACS Infectious Diseases, 2020)
Like-named read-outs stand apart in the source and are kept apart here.

Key:
[1] = system: P. falciparum Dd2 (PfLuc) line expressing firefly luciferase, asexual blood stage; test: microbe, parasite or virus in culture; format: cell-based, Plasmodium falciparum; conditions: Plasmodium falciparum
P. falciparum Dd2 = test: SYBR green I asexual blood stage proliferation assay (96 h); format: cell-based, Plasmodium falciparum; conditions: for IC50 / Emax: Plasmodium falciparum
[2] = DD2, read-out: CDD P. falciparum Luciferase ABS 11-pt Reconfirmation Dose Response (48hr): IC50 (μM), 11-pt dose response, 48hr
[3] = DD2, 8-pt dose response, 96hr, read-out: CDD P. falciparum Luciferase ABS 8-pt Reconfirmation Dose Response (96hr): IC50
[4] = DD2, 8-pt dose response, 96hr, read-out: CDD P. falciparum Luciferase ABS 8-pt Reconfirmation Dose Response (96hr): Maximum inhibition (%)
[5] = DD2, 11-pt dose response, 48hr, read-out: CDD P. falciparum Luciferase ABS 11-pt Reconfirmation Dose Response (48hr): Maximum inhibition (%)
[6] = DD2, 11-pt dose response, 96hr, read-out: CDD P. falciparum Luciferase ABS 11-pt Reconfirmation Dose Response (96hr): IC50
[7] = DD2, 11-pt dose response, 96hr, read-out: CDD P. falciparum Luciferase ABS 11-pt Reconfirmation Dose Response (96hr): Maximum inhibition (%)
[8] = DD2, Sybr Green I, 11-pt dose response, 96hr, read-out: CDD P. falciparum Sybr Green I ABS 11-pt Reconfirmation Dose Response (96hr): IC50
[9] = DD2, Sybr Green I, 11-pt dose response, 96hr, read-out: CDD P. falciparum Sybr Green I ABS 11-pt Reconfirmation Dose Response (96hr): Maximum inhibition (%)
[10] = DD2, read-out: P. falciparum Luciferase ABS 11-pt Reconfirmation Dose Response (48hr): IC50, 11-pt dose response, 48hr
[11] = DD2, 8-pt dose response, 96hr, read-out: P. falciparum Luciferase ABS 8-pt Reconfirmation Dose Response (96hr): IC50
[12] = DD2, 8-pt dose response, 96hr, read-out: P. falciparum Luciferase ABS 8-pt Reconfirmation Dose Response (96hr): Maximum inhibition (%)
[13] = DD2, 11-pt dose response, 96hr, read-out: P. falciparum Luciferase ABS 11-pt Reconfirmation Dose Response (96hr): IC50
[14] = DD2, 11-pt dose response, 96hr, read-out: P. falciparum Luciferase ABS 11-pt Reconfirmation Dose Response (96hr): Maximum inhibition (%)
[15] = DD2, 11-pt dose response, 96hr, read-out: P. falciparum Sybr Green I ABS 11-pt Reconfirmation Dose Response (96hr): IC50
[16] = DD2, 11-pt dose response, 96hr, read-out: P. falciparum Sybr Green I ABS 11-pt Reconfirmation Dose Response (96hr): Maximum inhibition (%)

| Structure (SMILES) | IC50 [1, 2] [µM] | IC50 [1, 3] [µM] | Emax [1, 4] [%] | Emax [1, 5] [%] | IC50 [1, 6] [µM] | Emax [1, 7] [%] | IC50 (P. falciparum Dd2; [8]) [µM] | Emax (P. falciparum Dd2; [9]) [%] | also measured |
| --- | --- | --- | --- | --- | --- | --- | --- | --- | --- |
| Fc1ccc(CN2CCC3(CC2)CCN(Cc2nccs2)CC3)cc1 [DDD01031337] | 8.85 | 0.78 | 88.8 | 69.4 | 1.46 | 87.9 | > 1.39 | 71.7 | – |
| COc1ccc(CCC(=O)NCCN2CCC(c3cccs3)CC2)cc1 [DDD01028015] | 11.4 | 0.95 | 85.7 | 69.6 | 2.24 | 86.6 | 4.17 | 71.9 | – |
| OCCN1CCC(CNCc2ccc(Br)cc2)CC1 [DDD01072406] | 2.84 | 0.53 | 95.5 | 94.9 | 0.749 | 99.6 | 2.01 | 92.7 | – |
| Cc1ccc(Oc2cc(F)ccc2O[C@@H]2CCC[C@@H](N)[C@H]2O)cc1 [DDD01059749] | 2.7 | 0.54 | 92.7 | 98 | > 1.39 | 100 | 2.27 | 95.9 | – |
| CC(NCC1CCN(CCO)CC1)c1ccc(Cl)cc1 (stereo not drawn) [DDD01073718] | 2.47 | 0.81 | – | – | 0.695 | 98.2 | 0.844 | – | – |
| c1cnc(N2CCC(c3csc(Nc4cnccn4)n3)CC2)nc1 [DDD01056714, C1CN(CCC1c1csc(Nc2cnccn2)n1)c1ncccn1] | – | – | – | – | – | – | – | – | IC50 ([1]; DD2, read-out: CDD P. falciparum Luc 11pt dose response (96hr, n=2): IC50 (μM), 96hr, 11-point, n=2): 0.0286 µM; IC50 ([1]; DD2, read-out: CDD P. falciparum Luciferase 11pt dose response (48hr, n=2): IC50 (μM), 48hr, 11-point, n=2): 0.0592 µM; Emax ([1]; DD2, 48hr, 11-point, read-out: CDD P. falciparum Luciferase ABS 11-pt Reconfirmation Dose Response (48hr): Maximum inhibition (%)): 82.6%; Emax ([1]; DD2, 96hr, 11-point, read-out: CDD P. falciparum Luciferase ABS 11-pt Reconfirmation Dose Response (96hr): Maximum inhibition (%)): 94.8%; CDD P. falciparum Sybr Green I ABS Dd2 Dose Response: Maximum measured (%) (P. falciparum Dd2; Dd2, 96 h): 55.9%; IC50 (P. falciparum Dd2; DD2, 96 h, read-out: CDD P. falciparum Sybr Green I ABS Dd2 Dose Response: IC50): > 4.16 µM |
| Cc1ncc(CNCCO)c2cc(C(=O)c3ccc(Br)cc3)oc12 [DDD01027290] | – | – | – | – | – | – | – | – | IC50 [1, 10]: > 12.5 µM; IC50 [1, 11]: 1.35 µM; Emax [1, 12]: 90.8%; IC50 [1, 13]: 1.63 µM; Emax [1, 14]: 98.3%; IC50 (P. falciparum Dd2; [15]): 3.32 µM; Emax (P. falciparum Dd2; [16]): 63.7% |
| COCCn1ccnc1CN(Cc1ccccn1)Cc1sccc1C [DDD01252459] | – | – | – | – | – | – | – | – | IC50 [1, 10]: 3.48 µM; IC50 [1, 11]: 1.19 µM; Emax [1, 12]: 90.8%; Emax ([1]; DD2, 11-pt dose response, 48hr, read-out: P. falciparum Luciferase ABS 11-pt Reconfirmation Dose Response (48hr): Maximum inhibition (%)): 94.7%; IC50 [1, 13]: 0.73 µM; Emax [1, 14]: 99.1%; IC50 (P. falciparum Dd2; [15]): > 4.16 µM; Emax (P. falciparum Dd2; [16]): 87.8% |
| COc1ccc2[nH]c(C[C@@H]3C[C@@H](C(C)C)[C@H](CN(C)C)C=C3C)nc2c1 [DDD01025345] | 12 | 0.59 | 88.6 | 66.8 | 1.53 | 91.5 | 3.63 | 67.2 | – |
| Cc1cc(-n2cccn2)ccc1CN1CCOCC(CN(C)C)C1 (stereo not drawn) [DDD01247138] | > 12.5 | 0.9 | 83 | 48 | 5.64 | 81.9 | > 4.16 | 60.8 | – |
| Clc1cccc(N[C@H]2CCCN[C@H]2Cc2ccccc2)c1 [DDD01058816] | 1.92 | 1.06 | 95.6 | 100 | 0.64 | 101 | 3.54 | 94.8 | – |
| Cc1cc(F)ccc1N1CCC(N2C[C@@H](CN(C)C)[C@@H](CO)C2)CC1 [DDD01253692] | > 4.16 | 0.37 | 94.9 | 55.2 | 0.396 | 100 | 2.03 | 90.3 | – |
| CN(Cc1cc(Cl)cc2cccnc12)CC1CCN(CCO)CC1 [DDD01063807] | 2.2 | 0.36 | 94.1 | 97.5 | 1.42 | 100 | 0.584 | 95.8 | – |
| Oc1cccc2ccc(CN3CCC4(CCNCC4)C3)nc12 [DDD01243747] | 0.642 | 0.76 | 92 | 97.9 | 0.231 | 101 | 10.8 | 75.2 | – |
| NCC1Cc2cc(-c3nccc(N4CCC(O)CC4)n3)cc(F)c2O1 (stereo not drawn) [DDD01254054] | 2.43 | 0.59 | 94.6 | 91.4 | 1.87 | 98.9 | 2.49 | 92 | – |
| Cc1cccnc1CN1CC[C@H](Oc2cccc(F)c2)[C@@](C)(O)C1 [DDD01060871] | 1.92 | 0.92 | 90.5 | 93.1 | 0.553 | 100 | 2.59 | 82.8 | – |
| COc1ccc(-c2ccccc2CCN)c(OC)c1OC [DDD01256178] | 3.3 | 1 | 87.9 | 83.2 | 2.11 | 98.8 | 3.03 | 89.5 | – |
| Clc1cccc2c3c([nH]c12)CCN(Cc1cc2n(n1)CCCNC2)C3 [DDD01255494] | – | – | – | – | – | – | – | – | IC50 [1, 10]: 3.79 µM; IC50 [1, 11]: 1.21 µM; Emax [1, 12]: 91.2%; IC50 [1, 13]: 1.07 µM; Emax [1, 14]: 99.6%; IC50 (P. falciparum Dd2; [15]): 3.52 µM; Emax (P. falciparum Dd2; [16]): 91% |
| Cc1ccc(CNC(CN2CCN(C)CC2)c2ccccc2)cc1 (stereo not drawn) [DDD01079898] | 4.31 | 0.26 | 91.3 | 88.2 | 1.21 | 98.8 | 1.36 | 95.9 | – |
| Cc1cccc(C)c1Nc1noc2c1CN(C(=O)c1c[nH]nc1C)CC2 [DDD01056871] | 1.9 | 0.77 | – | 87.7 | 1.38 | 96.9 | 2.52 | – | – |
| Cc1ccc(CN2CCC3(CC2)CCN(Cc2ccoc2)CC3)cc1 [DDD01031590] | 2.04 | 0.24 | 94.3 | 86.7 | 0.444 | 99.4 | 2.33 | – | – |
| CC(O)CN1CCC(CNCc2cccc(Cl)c2)CC1 (stereo not drawn) [DDD01300263] | 5.96 | 0.76 | 89.7 | 89 | 2.57 | 98 | 3.65 | 89.5 | – |
| Cc1cccc(C2(NCCCS(C)(=O)=O)CCCC2)c1 [DDD01078804] | 12.1 | 0.66 | 85 | 56.6 | 1.93 | 85.9 | 6.57 | 74.2 | – |
| Fc1ccccc1C1(CNC2CCOC3(CCOCC3)C2)CCCC1 (stereo not drawn) [DDD01251139] | 8.87 | 0.96 | 86.2 | 69.5 | 1.43 | 89.3 | 0.587 | 71.8 | – |
| CC(C)N1CCC2(CCCN(c3nccc(C(F)(F)F)n3)C2)CC1 [DDD01028790] | 3.12 | 0.61 | 89.3 | 69 | 1.33 | 91.1 | 9.75 | 76.4 | – |
| CN1CCN(CC(NCc2ccc(F)c(F)c2)c2ccccc2)CC1 (stereo not drawn) [DDD01069631] | 5.37 | 0.58 | 89.5 | 78.3 | 0.913 | 94.6 | 4.41 | 85.4 | IC50 ([1]; 96 h incubation, Dd2 luciferase, read-out: 96 hour Pfluc IC50): 0.91 µM |
| CCC[C@H]1CN(S(=O)(=O)c2ccc(-c3c(C)noc3C)s2)C[C@@H]1N [DDD01245572] | > 12.5 | 1 | 81.3 | 19 | 2.92 | 74.1 | 5.57 | 55.3 | – |
